Measured values: ChEMBL document CHEMBL1137505, “Direct diazo-transfer reaction on beta-lactam: synthesis and preliminary biological activities of 6-triazolylpenicillanic acids” (2007)
Converted amounts (≈) assume the structure as drawn.

Legend:
Type in all cases: functional
[1] = test system: Bacillus anthracis; test: Antibacterial activity against Bacillus anthracis AMES
[2] = test system: Staphylococcus aureus; test: Antibacterial activity against Staphylococcus aureus ATCC 29213
[3] = test system: Escherichia coli; test: Antibacterial activity against Escherichia coli ATCC 25922
[4] = test system: Streptococcus pneumoniae; test: Antibacterial activity against Streptococcus pneumoniae ATCC 49619

Structure (SMILES) | MIC [1] [µg/mL] | MIC [2] [µg/mL] | MIC [3] [µg/mL] | MIC [4] [µg/mL]
CC1(C)S[C@@H]2[C@H](n3cc(-c4ccccc4-c4ccccc4)nn3)C(=O)N2[C@H]1C(=O)O | > 8 | > 8 | > 8 | > 8
CC1(C)S[C@@H]2[C@H](n3cc(C(O)c4ccc(-c5ccncc5)cc4)nn3)C(=O)N2[C@H]1C(=O)[O-].[Na+] (stereo partly drawn) | ≥ 8 | > 8 | > 8 | ≥ 8
CC1(C)S[C@@H]2[C@H](n3cc(C(O)c4ccccc4)nn3)C(=O)N2[C@H]1C(=O)O (stereo partly drawn) | > 8 | > 8 | > 8 | > 8
CC1(C)S[C@@H]2[C@H](n3cc(-c4ccc(-c5ccccc5)cc4)nn3)C(=O)N2[C@H]1C(=O)O | > 8 | > 8 | > 8 | ≥ 8
CC1(C)S[C@@H]2[C@H](n3cc(-c4ccc(-c5ccncc5)cc4)nn3)C(=O)N2[C@H]1C(=O)O | > 8 | > 8 | > 8 | > 8
CC1(C)S[C@@H]2[C@H](n3cc(Cc4ccccc4)nn3)C(=O)N2[C@H]1C(=O)O | > 8 | > 8 | > 8 | 4 (≈ 11.2 µM)
COc1cccc(OC)c1-c1cn([C@@H]2C(=O)N3[C@@H]2SC(C)(C)[C@@H]3C(=O)O)nn1 | > 8 | > 8 | > 8 | > 8
CC1(C)S[C@@H]2[C@H](n3cc(-c4cccnc4)nn3)C(=O)N2[C@H]1C(=O)O | > 8 | > 8 | > 8 | > 8
CC1(C)S[C@@H]2[C@H](n3cc(-c4ccccn4)nn3)C(=O)N2[C@H]1C(=O)O | > 8 | > 8 | > 8 | > 8
CC1(C)S[C@@H]2[C@H](n3cc(-c4ccccc4)nn3)C(=O)N2[C@H]1C(=O)O | > 8 | > 8 | > 8 | 4 (≈ 11.6 µM)
CC1(C)S[C@@H]2[C@H](n3cc(-c4cccc(-c5ccccc5)c4)nn3)C(=O)N2[C@H]1C(=O)O | > 8 | > 8 | > 8 | > 8
CC1(C)S[C@@H]2[C@H](n3cc(-c4ccncc4)nn3)C(=O)N2[C@H]1C(=O)O | > 8 | > 8 | > 8 | > 8
CC1(C)S[C@@H]2[C@H](n3cc(-c4cccs4)nn3)C(=O)N2[C@H]1C(=O)O | > 8 | > 8 | > 8 | 8 (≈ 22.8 µM)
CC1(C)S[C@@H]2[C@H](NC(=O)Cc3ccccc3)C(=O)N2[C@H]1C(=O)O [PENICILLIN G] | ≤ 0.125 | 1 (≈ 2.99 µM) | > 2 | –
CCN1CCN(C(=O)N[C@@H](C(=O)N[C@@H]2C(=O)N3[C@@H]2SC(C)(C)[C@@H]3C(=O)O)c2ccccc2)C(=O)C1=O [PIPERACILLIN] | 1 (≈ 1.93 µM) | 2 (≈ 3.86 µM) | 4 (≈ 7.73 µM) | –
